Experimental data published in patent publication US9125866B1, “Antidepressant compounds” (KING SAUD UNIVERSITY, priority 2015, dated 2015).

Test system: mice subjected to the forced swim test
Test: Forced swim test on mice (duration of immobility)
Assay type: in vivo, Swiss white mice
Conditions: for Duration of immobility in seconds during the last four minutes of the six minute period: 20 minutes before test, N=4; for Activity in reducing immobility time compared with control (in words): 40 mg/Kg; for Percentage decrease in immobility times for dosage of 40 mg/kg: 40 mg/kg i.p.; for Percentage decrease in immobility times for dosage of 40 mg/kg / Percentage decrease in immobility times for dosage of 80 mg/kg: versus control; for Percentage decrease in immobility times for dosage of 80 mg/kg: 80 mg/kg i.p.
Source text: The antidepressant compounds can be used to treat depression. […] As exemplified in such technical articles as I Weiner et al., “A comparison of drug effects in latent inhibition and the forced swim test differentiates between the typical antipsychotic haloperidol, the atypical antipsychotics clozapine and olanzapine, and the antidepressants imipramine and paroxetine”, Behavioural Pharmacology (2003), Vol. 14, pp. 215-22, and D. A. Slattery et al., “Using the rat forced swim test to assess antidepressant-like activity in rodents”, Nature Protocols (2012), Vol. 7, pp. 1009-1014, the forced swim test is recognized in the pharmacological art as a standard test protocol for assessing antidepressant-like behavior induced by antidepressant compounds. The forced swimming test measures the duration of immobility of rodents exposed to the threat of drowning. Mice normally swim for 1-2 minutes and then turn helpless and become immobile. […] For example, the mouse may appear to float, i.e. almost immobile and with its head above water. The majority of known antidepressant drugs decrease the duration of immobility.
To test for the presence of anti-depressant activity of the test compounds 3, 4, 5 and 6, the forced swim test was conducted on mice. The forced swimming test was conducted generally in accordance with the procedures set forth in David, D. J. P. et al., Psychopharmacology (2003), 166, 373-382, with the exception of a slight modification in the dimensions of the vessel used as a swimming pool. The vessel was a glass cylinder having an internal diameter of 25 cm and included water having a depth of 15 cm and a temperature of about 22±2° C. Swiss white mice weighing 25 g each were divided into 17 groups (N=4). One group served as control and the others divided for each test compound.
The test compounds were dissolved in DMSO and administered in 4 dose levels of 10, 20, 40, 80 mg/kg, respectively, intraperitoneally (“i.p.”). The antidepressant compounds were administered to the mice 20 minutes before starting the swimming test. The control group was administered the vehicle only, in the same volume. Each mouse was allowed to stay in the swimming pool for 6 minutes. The duration of the period of immobility was measured at the beginning of the third minute of placing the mouse into the swimming pool and ended by the end of the sixth minute. In other words, the duration of immobility observed only during the last four minutes was recorded. For each test compound dose, the time of immobility was calculated and then averaged.

[1] = 40 mg/kg i.p. in DMSO, * P<0.05 compared with control
[2] = 80 mg/kg i.p. in DMSO, * P<0.05 compared with control

SMILES | Duration of immobility in seconds during the last four minutes of the six minute period (10 mg/kg i.p. in DMSO) [s] | Duration of immobility in seconds during the last four minutes of the six minute period (20 mg/kg i.p. in DMSO) [s] | Activity in reducing immobility time compared with control (in words) (p<0.05, N=4) | Duration of immobility in seconds during the last four minutes of the six minute period [1] | Percentage decrease in immobility times for dosage of 40 mg/kg [%] | Immobility time compared with the control (in words) (80 mg/kg dosage, p<0.05, N=4) | Duration of immobility in seconds during the last four minutes of the six minute period [2] | Percentage decrease in immobility times for dosage of 80 mg/kg [%] | Activity in the forced swim test (in words) (all doses tested (10, 20, 40, 80 mg/kg i.p.)) | Activity compared with compound 3 (in words) (80 mg/kg dosage, p<0.05, N=4)
O=CC1CC2c3cccc(Cl)c3C1c1c(Cl)cccc12 (stereo not shown) [Compound 3, 4,5-dichloro-9,10-dihydro-9,10-ethanoanthracene-11-carbaldehyde] | 240 | 240 | significantly active in reducing immobility time | 160 ± 11* seconds | 28.9 | significant decrease in immobility time | 65 ± 4* seconds | 71.1 |  | 
O=CC1CC2c3c(Cl)cccc3C1c1cccc(Cl)c12 (stereo not shown) [Compound 4, 1,8-dichloro-9,10-dihydro-9,10-ethanoanthracene-11-carbaldehyde] | 240 | 240 |  | 240 s |  |  | 240 s |  | completely inactive | 
CNCC1CC2c3cccc(Cl)c3C1c1c(Cl)cccc12 (stereo not shown) [Compound 5] | 240 | 200 ± 12.3 | significantly active in reducing immobility time | 140 ± 7.9* seconds | 37.8 | significant decrease in immobility time | 36 ± 4.9* seconds | 84.0 |  | significantly more active than compound 3
